Tests used:
[1] = tested on: HMC1.2 cells; experiment: Cell viability assay (CellTiter-Glo); format: cell-based, human; conditions: 72 h; for GI50: Homo sapiens; for GI50 HMC1.2: inactive = less than 50% inhibition at a concentration of 50 μM
Method: (§1) GIST-T1 (Cosmobio, Tokyo, Japan, # PMC-GIST01C-COS) cells were cultured in DMEM (Welgene, # LM001-05) and HMC1.2 (Merck, Darmstadt, Germany, # SCC062) cells were cultured in IMDM (Welgene, # LM004-01). Parental Ba/F3 (DSMZ, Braunschweig, Germany, # ACC300) cells were cultured in RPMI (Welgene, # LM011-51) with 10 ng IL-3/mL (Enzo, # ALX-201-821). The culture media was supplemented with 10% fetal bovine serum and 1% penicillin/streptomycin solution. The cells were maintained in a humidified atmosphere containing 5% CO2 at 37 °C.
(§2) Cells (GIST-T1: 5.0 × 10^3; HMC1.2: 1 × 10^4) were seeded in 96-well plates. Each compound was treated in each well at 10 dose points of 3-fold serial dilution. After treatment with each compound for 72 h, CellTiter-Glo solution (Promega, # G7572) was added to each well. Anti-proliferation activity was measured the luminescence using a 96-well plate reader (EnVision 2013).

[2] = tested on: GIST-T1 cells; experiment: Cell viability assay (CellTiter-Glo); format: cell-based; conditions: Homo sapiens, GISTT1; 72 h; concentration causing half-maximal growth inhibition
Method: as §1, §2

[3] = biological target: c-KIT (Homo sapiens, UniProt P10721); experiment: Radiometric biochemical kinase assay on c-KIT; set-up: purchased Reaction Biology Corp. (contract assay service); conditions: for IC50: read-out: IC50 against c-KIT; for IC50 against c-KIT: radiometric biochemical kinase assay, 10 μM ATP, inactive = less than 50% inhibition at a concentration of 10 μM; for fold decreased c-KIT inhibitory activity relative to 6r: versus 6r; for fold enhanced c-KIT inhibitory activity compared with 6h: versus 6h
Method: Biochemical kinase assays on c-KIT protein kinase were performed at Reaction Biology Corp. (San Diego, CA, USA). […] The kinase assay followed the manufacturer’s instruction. IC50 values were calculated by GraphPad prism 8.0 software (GraphPad Software, San Diego, CA, USA).
Enzymatic inhibitory activities of all synthesized thiazolo[5,4-b]pyridine derivatives against c-KIT were measured using radiometric biochemical kinase assays (Table 1). We first explored the R1 group of the thiazolo[5,4-b]pyridine scaffold.

[4] = tested on: c-KIT D816V Ba/F3 cells; experiment: Anti-proliferative activity on Ba/F3 cells; format: cell-based; conditions: Mus musculus, BaF3
[5] = tested on: parental Ba/F3 cells; experiment: Anti-proliferative activity on Ba/F3 cells; format: cell-based; conditions: Mus musculus, BaF3
Method: as §1, §2

Sequence of c-KIT (P10721 26-976): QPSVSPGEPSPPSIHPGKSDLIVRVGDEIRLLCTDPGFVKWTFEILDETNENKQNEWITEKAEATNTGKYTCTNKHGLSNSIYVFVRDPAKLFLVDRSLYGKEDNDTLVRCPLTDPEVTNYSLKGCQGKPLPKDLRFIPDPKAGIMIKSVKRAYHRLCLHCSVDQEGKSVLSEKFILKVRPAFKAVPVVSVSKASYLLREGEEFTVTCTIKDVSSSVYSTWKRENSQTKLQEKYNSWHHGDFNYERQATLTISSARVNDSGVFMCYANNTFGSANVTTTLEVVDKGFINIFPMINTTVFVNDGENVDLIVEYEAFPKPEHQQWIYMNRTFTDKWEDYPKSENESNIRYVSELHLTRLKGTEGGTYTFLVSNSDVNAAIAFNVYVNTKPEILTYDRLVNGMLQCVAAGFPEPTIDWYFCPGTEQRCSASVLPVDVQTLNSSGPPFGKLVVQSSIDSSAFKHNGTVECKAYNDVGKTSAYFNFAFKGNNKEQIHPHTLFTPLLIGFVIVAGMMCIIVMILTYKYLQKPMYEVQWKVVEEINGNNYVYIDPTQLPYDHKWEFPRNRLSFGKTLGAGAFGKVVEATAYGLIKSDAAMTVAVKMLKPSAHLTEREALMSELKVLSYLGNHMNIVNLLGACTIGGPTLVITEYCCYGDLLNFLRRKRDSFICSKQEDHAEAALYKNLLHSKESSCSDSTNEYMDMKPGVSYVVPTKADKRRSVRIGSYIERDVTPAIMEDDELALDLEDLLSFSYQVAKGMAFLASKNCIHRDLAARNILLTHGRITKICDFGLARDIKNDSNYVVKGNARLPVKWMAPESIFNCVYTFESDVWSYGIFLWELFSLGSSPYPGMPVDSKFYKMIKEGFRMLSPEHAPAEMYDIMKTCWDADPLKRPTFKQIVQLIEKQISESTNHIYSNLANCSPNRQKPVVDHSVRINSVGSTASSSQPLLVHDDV

Row | IC50 [3] [µM] | IC50 against c-KIT [3] | GI50 [4] [µM] | fold decreased c-KIT inhibitory activity relative to 6r [3] | fold enhanced c-KIT inhibitory activity compared with 6h [3] | SMILES | GI50 [1] [µM] | GI50 [2] [µM] | GI50 [5] [µM] | GI50 HMC1.2 [1]
1 | 0.88 |  |  |  |  | CC(=O)Nc1nc2cc(-c3cc(NC(=O)c4ccc(N5CCOCC5)c(C(F)(F)F)c4)ccc3C)cnc2s1 [7e] | 14 ± 10.2 | 0.23 ± 0.07 |  | 
2 | 1.51 |  |  | 5.3- to 10.8 fold |  | Cc1ccc(NC(=O)c2ccc(CN3CCN(C)CC3)c(C(F)(F)F)c2)cc1-c1cnc2sc(NC(=O)C3CCCCC3)nc2c1 [7a] | 4.58 ± 0.32 | 0.08 ± 0.01 |  | 
3 | 0.25 |  |  |  |  | Cc1ccc(NC(=O)c2ccc(CN(C)CCN(C)C)c(C(F)(F)F)c2)cc1-c1cnc2sc(N)nc2c1 [6w] | 4.99 ± 0.43 | 0.02 ± 0.01 |  | 
4 | 5.72 |  |  |  |  | Cc1ccc(NC(=O)c2ccc(CN3CCOCC3)c(C(F)(F)F)c2)cc1-c1cnc2sc(N)nc2c1 [6p] | 8.55 ± 2.4 | 0.66 ± 0.1 |  | 
5 | 3.23 |  |  |  |  | Cc1ccc(NC(=O)c2ccc(CN3CCS(=O)(=O)CC3)c(C(F)(F)F)c2)cc1-c1cnc2sc(N)nc2c1 [6q] | 15.5 ± 3.97 | 0.42 ± 0.07 |  | 
6 |  | inactive^b |  |  |  | Cc1ccc(NC(=O)c2ccc(N3CCOCC3)c(C(F)(F)F)c2)cc1-c1cnc2sc(NC(=O)C3CCCCC3)nc2c1 [7d] |  | 8.13 ± 1.81 |  | inactive ^b
7 |  | inactive^b |  |  |  | Cc1cncc(C(=O)Nc2ccc(C)c(-c3cnc4sc(N)nc4c3)c2)c1 [6f] |  | 20.9 ± 2 |  | inactive ^b
8 | 9.87 |  |  |  |  | Cc1ccc(NC(=O)c2cccc(C(F)(F)F)c2)cc1-c1cnc2sc(N)nc2c1 [6h] | 7.26 ± 4.13 | 0.96 ± 0.1 |  | 
9 |  | inactive^b |  |  |  | Cc1ccc(NC(=O)Nc2cccc(C(F)(F)F)c2)cc1-c1cnc2sc(N)nc2c1 [6j] | 6.35 ± 0.32 | 3.31 ± 0.73 |  | 
10 |  | inactive^b |  |  |  | Cc1cc(C(=O)Nc2ccc(C)c(-c3cnc4sc(N)nc4c3)c2)no1 [6b] |  | 33 ± 7.09 |  | Inactive ^b
11 |  | inactive^b |  |  |  | Cc1cccc(C(=O)Nc2ccc(C)c(-c3cnc4sc(N)nc4c3)c2)c1 [6e] | 11.5 ± 0.62 | 3.45 ± 0.41 |  | 
12 | 4.56 |  |  |  |  | CC(=O)N1CCN(Cc2ccc(C(=O)Nc3ccc(C)c(-c4cnc5sc(N)nc5c4)c3)cc2C(F)(F)F)CC1 [6u] | 11.3 ± 0.34 | 0.66 ± 0.08 |  | 
13 | 0.18 |  |  |  |  | CC(=O)Nc1nc2cc(-c3cc(NC(=O)c4ccc(CN5CCCC(N(C)C)C5)c(C(F)(F)F)c4)ccc3C)cnc2s1 (stereo not drawn) [7g] | 4.88 ± 1.18 | 0.07 ± 0.01 |  | 

The next lines start with the compound.

Row | SMILES | IC50 [3] [µM] | IC50 against c-KIT [3] | GI50 [4] [µM] | fold decreased c-KIT inhibitory activity relative to 6r [3] | fold enhanced c-KIT inhibitory activity compared with 6h [3] | GI50 [1] [µM] | GI50 [2] [µM] | GI50 [5] [µM] | GI50 HMC1.2 [1]
14 | Cc1ccc(NC(=O)c2cccc(S(C)(=O)=O)c2)cc1-c1cnc2sc(N)nc2c1 [6g] |  | inactive^b |  |  |  | 36.8 ± 10.9 | 10.8 ± 1.06 |  | 
15 | CCN(CC)CCNC(=O)c1c(C)[nH]c(/C=C2\C(=O)Nc3ccc(F)cc32)c1C [sunitinib, reference compound] |  |  | 0.58 ± 0.29 |  |  | 2.53 ± 0.35 | 0.01 | 2.72 ± 0.3 | 
16 | Cc1ccc(NC(=O)c2ccccc2)cc1-c1cnc2sc(N)nc2c1 [6d] |  | inactive^b |  |  |  | 25.2 ± 2.21 | 16.4 ± 2.73 |  | 
17 | Cc1ccc(NC(=O)c2csc(-c3ccncc3)n2)cc1-c1cnc2sc(N)nc2c1 [6c] |  | inactive^b |  |  |  |  | 33.7 ± 3.45 |  | Inactive ^b
18 | Cc1ccc(NC(=O)c2ccc(N(C)C)c(C(F)(F)F)c2)cc1-c1cnc2sc(N)nc2c1 [6k] | 4.31 |  |  |  | 2.3- to 5.6 fold | 2.27 ± 0.84 | 0.18 ± 0.03 |  | 
19 | Cc1ccc(NC(=O)c2cc(N3CCN(C)CC3)cc(C(F)(F)F)c2)cc1-c1cnc2sc(N)nc2c1 [6o] | 5.03 |  |  |  |  | 2.36 ± 0.58 | 0.28 ± 0.08 |  | 
20 | Cc1ccc(NC(=O)c2ccc(CN3CCN(C)CC3)c(C(F)(F)F)c2)cc1-c1cnc2sc(NC(=O)c3ccccc3)nc2c1 [7b] | 0.74 |  |  | 5.3- to 10.8 fold |  | 5.22 ± 0.59 | 0.1 ± 0.01 |  | 
21 | CC(=O)Nc1nc2cc(-c3cc(NC(=O)c4ccc(CN5CCOCC5)c(C(F)(F)F)c4)ccc3C)cnc2s1 [7f] | 3.63 |  |  |  |  | 28.4 ± 13.3 | 0.3 ± 0.06 |  | 
22 | Cc1ccc(NC(=O)Cc2cccc(C(F)(F)F)c2)cc1-c1cnc2sc(N)nc2c1 [6i] |  | inactive^b |  |  |  | 9.65 ± 1.06 | 7.16 ± 0.87 |  | 
23 | Cc1ccc(NC(=O)c2ccc(CN3CCCC(N(C)C)C3)c(C(F)(F)F)c2)cc1-c1cnc2sc(N)nc2c1 (stereo not drawn) [6v] | 0.39 |  |  |  |  | 6.81 ± 0.67 | 0.05 ± 0.01 |  | 
24 | Cc1ccc(NC(=O)c2ccc(N3CCOCC3)c(C(F)(F)F)c2)cc1-c1cnc2sc(N)nc2c1 [6l] | 1.76 |  |  |  | 2.3- to 5.6 fold | 4.34 ± 1.31 | 0.08 ± 0.01 |  | 
25 | Cc1ccc(NC(=O)c2ccc(CN3CCN(CCO)CC3)c(C(F)(F)F)c2)cc1-c1cnc2sc(N)nc2c1 [6t] | 1.25 |  |  |  |  | 6.62 ± 0.75 | 0.12 ± 0.03 |  | 
26 | Cc1ccc(NC(=O)c2ccc(N3CCN(C)CC3)c(C(F)(F)F)c2)cc1-c1cnc2sc(N)nc2c1 [6m] | 2.17 |  |  |  | 2.3- to 5.6 fold | 3.41 ± 1.49 | 0.27 ± 0.17 |  | 
27 | CC(=O)Nc1nc2cc(-c3cc(NC(=O)c4ccc(CN(C)CCN(C)C)c(C(F)(F)F)c4)ccc3C)cnc2s1 [7h] | 0.1 |  |  |  |  | 4.98 ± 0.32 | 0.02 |  | 
28 | Cc1ccc(NC(=O)c2cscn2)cc1-c1cnc2sc(N)nc2c1 [6a] |  | inactive^b |  |  |  |  | > 50 |  | Inactive ^b
29 | Cc1ccc(NC(=O)c2cc(N3CCOCC3)cc(C(F)(F)F)c2)cc1-c1cnc2sc(N)nc2c1 [6n] |  | Inactive ^b |  |  |  | 7 ± 2.68 | 0.55 ± 0.09 |  | 
